Here are results for 1 molecule from patent US6413736B1, “Astaxanthin over-producing strains of phaffia rhodozyma, methods for their cultivation, and their use in animal feeds” (Archer-Daniels-Midland Company, priority 1993, dated 2002).

The test concerns Rainbow trout (Onchorhynchus mykiss, Shasta strain). The test is described as follows: Rainbow trout feeding trial, 84 days: whole or disrupted Phaffia yeast versus synthetic astaxanthin. It is filed as in vivo. Particulars: after 84 days of feeding, FIG. 10, Phaffia versus synthetic astaxanthin. The procedure: The Phaffia strain was grown in a 2,000 l fermentor in a manner substantially described as above. Cells were concentrated to 15-22% solids by centrifugation and dried. The feed was processed by Zeigler Bros. Inc., […], Pa. The novel Phaffia rhodozma or synthetic astaxanthin (5% Carophyll Pink, Hoffmann-LaRoche) were incorporated into their #1⁄8 Trout Grower pelleted food. Rainbow trout (Onchorhynchus mykiss, Shasta strain) were obtained from a local commercial trout grower. After acclimation to laboratory conditions and an experimental control diet, the trout were moved into separate experimental tanks (28 fish per tank). […] Collectively, the procedures and diets employed in the experiments were designed to result in near-optimal growth of trout at 10 C, the approximate temperature at which most commercially-produced trout are raised. […] The fish were stunned by a blow to the head; total length measured; weight after blotting dry determined; and then each fish was cut across the isthmus severing the ventral aorta. […] The carotenoids were then partitioned into hexanes:ethyl acetate (1:1 by volume) and the total carotenoid and astaxanthin content were determined as described above in the section entitled PIGMENT EXTRACTION AND ASTAXANTHIN ANALYSIS. […] The DMSO extracted carotenoids were then quantified as described above in the section entitled PIGMENT EXTRACTION AND ASTAXANTHIN ANALYSIS. […]

Turning to `CC1=C(/C=C/C(C)=C/C=C/C(C)=C/C=C/C=C(C)/C=C/C=C(C)/C=C/C2=C(C)C(=O)C(O)CC2(C)C)C(C)(C)CC(O)C1=O` (stereo not drawn) [synthetic astaxanthin, 3,3′-dihydroxy-β,β-carotene-4,4′-dione], the flesh carotenoid content entry is “the same”.
